This passage reports cytotoxicity results from patent publication US20240383950A1, “RECOMBINANT GLYCAN BINDING PROTEINS AND ITS USE” (UNICHEM LABORATORIES LIMITED, priority 2021, published 2024).

This data set is described as follows: MTS-PMS cytotoxicity bioassay, MDA-MB 231. To be noted: human, MDA-MB 231 breast cancer cells.

Description: 5000 cells/well were used for testing.
The drug Doxorubicin was used as system suitability (SST) reference.

`COc1cccc2c1C(=O)c1c(O)c3c(c(O)c1C2=O)C[C@@](O)(C(=O)CO)C[C@@H]3O[C@H]1C[C@H](N)[C@H](O)[C@H](C)O1` [Doxorubicin] returned a cytotoxicity at 100 μm of 45%.
